Experimental data as given in patent publication US9309225B2, “N-((1-benzyl-1H-1,2,3-triazol-4-yl)methyl)arylamide compounds as potential anticancer agents and a process for the preparation thereof” (COUNCIL OF SCIENTIFIC & INDUSTRIAL RESEARCH, priority 2013, dated 2016).

Assays:
[1] = test system: KM12; assay: NCI sixty human tumor cell line screen, Colon panel; assay type: cell-based; conditions: NCI protocol
Procedure: (§1) The in vitro anticancer activity studies for these N-((1-benzyl-1H-1,2,3-triazol-4-yl)methyl) arylamide analogues were carried out at the National Cancer Institute, USA.
(§2) The N-((1-benzyl-1H-1,2,3-triazol-4-yl)methyl)arylamide analogues have been tested at NCI, USA, against sixty human tumor cell lines derived from nine cancer types (leukemia, non-small cell lung cancer, colon cancer, CNS cancer, melanoma cancer, ovarian cancer, renal cancer, prostate cancer and breast cancer). For these compounds results are expressed as growth inhibition (GI50) values as per NCI protocol.

[2] = test system: COLO 205; assay: as above; assay type: cell-based; conditions: COLO 205, Colon, NCI protocol
Procedure: as §1, §2

[3] = test system: SW-620; assay: as above; assay type: cell-based; conditions: SW-620, Colon, NCI protocol
Procedure: as §1, §2

[4] = test system: HT29; assay: as above; assay type: cell-based; conditions: HT-29, NCI protocol
Procedure: as §1, §2

[5] = test system: HCT-116; assay: as above; assay type: cell-based; conditions: HCT-116, Colon, NCI protocol
Procedure: as §1, §2

[6] = test system: M14; assay: NCI sixty human tumor cell line screen, Melanoma panel; assay type: cell-based; conditions: NCI protocol
Procedure: as §1, §2

[7] = test system: MDA-MB-435; assay: as above; assay type: cell-based; conditions: MDA-MB-435, Melanoma, NCI protocol
Procedure: as §1, §2

[8] = test system: SK-MEL-5; assay: as above; assay type: cell-based; conditions: SK-MEL-5, Melanoma, NCI protocol
Procedure: as §1, §2

[9] = test system: LOX IMVI; assay: as above; assay type: cell-based; conditions: NCI protocol
Procedure: as §1, §2

[10] = test system: MALME-3M; assay: as above; assay type: cell-based; conditions: NCI protocol
Procedure: as §1, §2

[11] = test system: SK-MEL-28; assay: as above; assay type: cell-based; conditions: SK-MEL-28, Melanoma, NCI protocol
Procedure: as §1, §2

[12] = test system: UACC-62; assay: as above; assay type: cell-based; conditions: UACC-62, Melanoma, NCI protocol
Procedure: as §1, §2

[13] = test system: SK-MEL-2; assay: as above; assay type: cell-based; conditions: SK-MEL-2, Melanoma, NCI protocol
Procedure: as §1, §2

[14] = test system: ACHN; assay: NCI sixty human tumor cell line screen, Renal panel; assay type: cell-based; conditions: NCI protocol
Procedure: as §1, §2

[15] = test system: A498; assay: as above; assay type: cell-based; conditions: NCI protocol
Procedure: as §1, §2

[16] = test system: CAKI-1; assay: as above; assay type: cell-based; conditions: CAKI-1, Renal, NCI protocol
Procedure: as §1, §2

[17] = test system: SN12C; assay: as above; assay type: cell-based; conditions: NCI protocol
Procedure: as §1, §2

[18] = test system: UO-31; assay: as above; assay type: cell-based; conditions: UO-31, Renal, NCI protocol
Procedure: as §1, §2

[19] = test system: RXF 393; assay: as above; assay type: cell-based; conditions: RXF 393, Renal, NCI protocol
Procedure: as §1, §2

[20] = test system: TK-10; assay: as above; assay type: cell-based; conditions: TK-10, Renal, NCI protocol
Procedure: as §1, §2

[21] = test system: OVCAR-3; assay: NCI sixty human tumor cell line screen, Ovarian panel; assay type: cell-based; conditions: OVCAR-3, Ovarian, NCI protocol
Procedure: as §1, §2

[22] = test system: NCI/ADR-RES; assay: as above; assay type: cell-based; conditions: NCI protocol
Procedure: as §1, §2

[23] = test system: SK-OV-3; assay: as above; assay type: cell-based; conditions: SK-OV-3, Ovarian, NCI protocol
Procedure: as §1, §2

[24] = test system: OVCAR-4; assay: as above; assay type: cell-based; conditions: OVCAR-4, Ovarian, NCI protocol
Procedure: as §1, §2

[25] = test system: OVCAR-8; assay: as above; assay type: cell-based; conditions: OVCAR-8, Ovarian, NCI protocol
Procedure: as §1, §2

[26] = test system: A549/ATCC; assay: NCI sixty human tumor cell line screen, Non-small-cell-lung panel; assay type: cell-based; conditions: NCI protocol
Procedure: as §1, §2

[27] = test system: NCI-H460; assay: as above; assay type: cell-based; conditions: NCI protocol
Procedure: as §1, §2

[28] = test system: NCI-H226; assay: as above; assay type: cell-based; conditions: NCI protocol
Procedure: as §1, §2

[29] = test system: EKVX; assay: as above; assay type: cell-based; conditions: NCI protocol
Procedure: as §1, §2

[30] = test system: NCI-H522; assay: as above; assay type: cell-based; conditions: NCI protocol
Procedure: as §1, §2

[31] = test system: HOP-62; assay: as above; assay type: cell-based; conditions: HOP-62, Non-small-cell-lung, NCI protocol
Procedure: as §1, §2

[32] = test system: BT-549; assay: NCI sixty human tumor cell line screen, Breast panel; assay type: cell-based; conditions: BT-549, Breast, NCI protocol
Procedure: as §1, §2

[33] = test system: MDA-MB-468; assay: as above; assay type: cell-based; conditions: MDA-MB-468, Breast, NCI protocol
Procedure: as §1, §2

[34] = test system: T-47D; assay: as above; assay type: cell-based; conditions: T47D, NCI protocol
Procedure: as §1, §2

[35] = test system: MDA-MB-31/ATCC; assay: as above; assay type: cell-based; conditions: NCI protocol
Procedure: as §1, §2

[36] = test system: SF-268; assay: NCI sixty human tumor cell line screen, CNS panel; assay type: cell-based; conditions: SF-268, CNS, NCI protocol
Procedure: as §1, §2

[37] = test system: SNB-75; assay: NCI sixty human tumor cell line screen, CNS panel; assay type: cell-based; conditions: SNB-75, CNS, NCI protocol
Procedure: as §1, §2

[38] = test system: U251; assay: NCI sixty human tumor cell line screen, CNS panel; assay type: cell-based; conditions: U-251, NCI protocol
Procedure: as §1, §2

[39] = test system: SNB-19; assay: NCI sixty human tumor cell line screen, CNS panel; assay type: cell-based; conditions: SNB-19, CNS, NCI protocol
Procedure: as §1, §2

[40] = test system: SF-539; assay: NCI sixty human tumor cell line screen, CNS panel; assay type: cell-based; conditions: SF-539, CNS, NCI protocol
Procedure: as §1, §2

[41] = test system: SF-295; assay: NCI sixty human tumor cell line screen, CNS panel; assay type: cell-based; conditions: SF-295, CNS, NCI protocol
Procedure: as §1, §2

[42] = test system: PC-3; assay: NCI sixty human tumor cell line screen, Prostate panel; assay type: cell-based; conditions: PC-3, Prostate, NCI protocol
Procedure: as §1, §2

[43] = test system: DU-145; assay: as above; assay type: cell-based; conditions: DU-145, Prostate, NCI protocol
Procedure: as §1, §2

COc1ccc(Nc2ncccc2C(=O)NCc2cn(Cc3cccc(Oc4ccccc4)c3)nn2)cc1 [Compound 1e, 2-(4-Methoxyphenylamino)-N-((1-(3-phenoxybenzyl)-1H-1,2,3-triazol-4-yl)methyl) nicotinamide] showed a GI50 [1] of 3.43 µM, a GI50 [2] of 2.86 µM and a GI50 [3] of 3.86 µM. It also gave a GI50 [4] of 3.66 µM, a GI50 [5] of 4.17 µM and a GI50 [6] of 3.15 µM. It also gave a GI50 [7] of 1.71 µM, a GI50 [8] of 2.9 µM and a GI50 [9] of 3.6 µM. It also gave a GI50 [10] of 3.8 µM, a GI50 [11] of 3.88 µM and a GI50 [12] of 3.13 µM. The GI50 [13] was 3.66 µM, the GI50 [14] was 6.9 µM and the GI50 [15] was 4.18 µM. For the same compound, the GI50 [16] was 6.3 µM, the GI50 [17] was 7.41 µM and the GI50 [18] was 5.25 µM. For the same compound, the GI50 [19] was 3.77 µM, the GI50 [20] was 5.16 µM and the GI50 [21] was 3.69 µM. For the same compound, the GI50 [22] was 3.21 µM, the GI50 [23] was 4.33 µM and the GI50 [24] was 5.42 µM. For the same compound, the GI50 [25] was 5.96 µM, the GI50 [26] was 3.44 µM and the GI50 [27] was 3.52 µM. The GI50 [28] was 3.92 µM, the GI50 [29] was 4.16 µM and the GI50 [30] was 2.13 µM. The GI50 [31] was 5.07 µM, the GI50 [32] was 7.16 µM and the GI50 [33] was 2.42 µM. The GI50 [34] was 4.68 µM, the GI50 [35] was 5.35 µM and the melting point was 95 to 98 °C. The GI50 [36] was 4.59 µM, the GI50 [37] was 3.09 µM and the GI50 [38] was 3.91 µM. For the same compound, the GI50 [39] was 3.55 µM, the GI50 [40] was 2.79 µM and the GI50 [41] was 2.94 µM. For the same compound, the GI50 [42] was 4.74 µM and the GI50 [43] was 1.05 µM.
O=C(NCc1cn(Cc2cccc(Oc3ccccc3)c2)nn1)c1cccnc1NCc1ccc(Cl)cc1 [Compound 1k, 2-(4-Chlorobenzylamino)-N-((1-(3-phenoxybenzyl)-1H-1,2,3-triazol-4-yl)methyl) nicotinamide] gave a GI50 [1] of 3.62 µM, a GI50 [2] of 2.18 µM and a GI50 [3] of 4.04 µM. For the same compound, the GI50 [4] was 2.96 µM, the GI50 [5] was 3.18 µM and the GI50 [6] was 2.49 µM. For the same compound, the GI50 [7] was 2.33 µM, the GI50 [8] was 2.53 µM and the GI50 [9] was 3.9 µM. The GI50 [10] was 5.69 µM, the GI50 [11] was 2.95 µM and the GI50 [12] was 2.08 µM. For the same compound, the GI50 [13] was 4.44 µM, the GI50 [14] was 4.03 µM and the GI50 [15] was 2.12 µM. For the same compound, the GI50 [16] was 4.36 µM, the GI50 [17] was 3.44 µM and the GI50 [18] was 3 µM. The GI50 [19] was 2.19 µM, the GI50 [20] was 3.7 µM and the GI50 [21] was 3.48 µM. It also gave a GI50 [22] of 2.86 µM, a GI50 [23] of 3.32 µM and a GI50 [24] of 3.37 µM. For the same compound, the GI50 [25] was 3.63 µM, the GI50 [26] was 3.21 µM and the GI50 [27] was 2.85 µM. For the same compound, the GI50 [28] was 3.66 µM, the GI50 [29] was 3.65 µM and the GI50 [30] was 2.18 µM. The GI50 [31] was 5.69 µM, the GI50 [32] was 2.72 µM and the GI50 [33] was 3.44 µM. For the same compound, the GI50 [34] was 3.2 µM, the GI50 [35] was 2.29 µM and the melting point was 209 to 211 °C. It also gave a GI50 [36] of 4.82 µM, a GI50 [37] of 2.02 µM and a GI50 [38] of 2.66 µM. It also gave a GI50 [39] of 3.91 µM, a GI50 [40] of 2.24 µM and a GI50 [41] of 2.8 µM. For the same compound, the GI50 [42] was 2.96 µM and the GI50 [43] was 4 µM.
Work on COc1ccc(Nc2ncccc2C(=O)NCc2cn(Cc3cccc(Oc4ccccc4)c3)nn2)c(OC)c1 [Compound 1g, 2-(2,4-Dimethoxyphenylamino)-N-((1-(3-phenoxybenzyl)-1H-1,2,3-triazol-4-yl)methyl) nicotinamide] yielded a GI50 [1] of 1.65 µM, a GI50 [2] of 2.14 µM and a GI50 [3] of 2.12 µM. For the same compound, the GI50 [4] was 3.26 µM, the GI50 [5] was 3.08 µM and the GI50 [6] was 2.13 µM. The GI50 [7] was 0.25 µM, the GI50 [8] was 0.72 µM and the GI50 [9] was 3.01 µM. It also gave a GI50 [10] of 4.07 µM, a GI50 [11] of 2.6 µM and a GI50 [12] of 1.43 µM. For the same compound, the GI50 [13] was 7.67 µM, the GI50 [14] was 4.83 µM and the GI50 [15] was 1.01 µM. The GI50 [16] was 1.71 µM, the GI50 [17] was 1.71 µM and the GI50 [18] was 8.06 µM. It also gave a GI50 [19] of 7.83 µM, a GI50 [20] of 3.14 µM and a GI50 [21] of 1.54 µM. For the same compound, the GI50 [22] was 2.12 µM, the GI50 [23] was 2.59 µM and the GI50 [24] was 5.11 µM. It also gave a GI50 [25] of 4.1 µM, a GI50 [26] of 4.15 µM and a GI50 [27] of 3.05 µM. It also gave a GI50 [28] of 2.24 µM, a GI50 [29] of 5.09 µM and a GI50 [30] of 1.82 µM. It also gave a GI50 [31] of 12.7 µM, a GI50 [32] of 3.51 µM and a GI50 [33] of 1.46 µM. It also gave a GI50 [34] of 4.28 µM, a GI50 [35] of 5.54 µM and a melting point of 127 to 129 °C. For the same compound, the GI50 [36] was 3.88 µM, the GI50 [37] was 3.41 µM and the GI50 [38] was 3.6 µM. The GI50 [39] was 3.33 µM, the GI50 [40] was 2.65 µM and the GI50 [41] was 0.56 µM. It also gave a GI50 [42] of 0.62 µM and a GI50 [43] of 3.37 µM.
